Data: BindingDB's records for doi:10.1002/1439-7633(20020902)3:9 (New York University, 2002)

Molecular target: Inositol-trisphosphate 3-kinase A (Homo sapiens, UniProt P23677)
Test: Inhibition Assay
Conditions: pH 8; 37 °C
Procedure: IP3K reactions were carried out in a 100ul solution that contained Tris-Cl, EGTA, ATP, DTT, 2,3-diphosphoglycerate, D-l(1,4,5)P3, [3H]-l(1,4,5)P3 and various amounts of synthetic purine analogues.

Chain of Inositol-trisphosphate 3-kinase A (P23677 whole entry): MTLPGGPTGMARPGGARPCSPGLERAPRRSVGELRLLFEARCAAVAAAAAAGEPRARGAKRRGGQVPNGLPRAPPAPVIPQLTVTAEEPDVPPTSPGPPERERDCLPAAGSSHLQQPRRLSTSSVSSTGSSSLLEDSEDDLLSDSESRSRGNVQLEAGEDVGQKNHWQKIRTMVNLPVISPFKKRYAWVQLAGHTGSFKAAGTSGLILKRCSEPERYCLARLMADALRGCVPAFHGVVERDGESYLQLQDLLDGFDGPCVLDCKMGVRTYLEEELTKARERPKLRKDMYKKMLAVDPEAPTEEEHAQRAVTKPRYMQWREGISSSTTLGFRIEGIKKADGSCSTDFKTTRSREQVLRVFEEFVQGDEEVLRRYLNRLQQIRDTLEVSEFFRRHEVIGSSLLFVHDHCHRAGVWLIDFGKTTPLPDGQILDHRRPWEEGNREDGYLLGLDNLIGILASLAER

SMILES	IC50 [µM]	Ki [µM]
Clc1ccc(CNc2nc(NCc3ccccc3)c3[nH]cnc3n2)cc1 [Purine, 7]	138	–
CC(Nc1nc(NCc2ccccc2)c2[nH]cnc2n1)c1ccccc1 (stereo not given) [Purine, 15]	117	–
CC(C)n1cnc2c(Nc3cccc(Cl)c3)nc(NCc3cccc(C(F)(F)F)c3)nc21 [Purine, 12]	> 200	–
Clc1cccc(CNc2nc(NCc3ccccc3)c3[nH]cnc3n2)c1 [Purine, 6]	150	–
O=[N+]([O-])c1ccc(CNc2nc(NCc3ccccc3Cl)nc3nc[nH]c23)cc1 [Purine, 22]	28	–
Cn1cnc2c(NCc3ccc(N)cc3)nc(NCc3cccc(C(F)(F)F)c3)nc21 [Purine, 1]	57.1	–
O=[N+]([O-])c1ccc(CNc2nc(NCc3ccc(C(F)(F)F)cc3)nc3nc[nH]c23)cc1 [Purine, 18]	67.6	–
c1ccc(CNc2nc(NCc3ccc4ccccc4c3)nc3nc[nH]c23)cc1 [Purine, 13]	63	–
O=[N+]([O-])c1ccc(CNc2nc(NCc3ccccc3F)nc3nc[nH]c23)cc1 [Purine, 19]	23.4	–
FC(F)(F)c1cccc(CNc2nc(NCc3ccccc3)c3ncn(C4CCCCO4)c3n2)c1 (stereo not given) [Purine, 4]	43.4	–
O=[N+]([O-])c1ccc(CNc2nc(NCc3ccc(F)cc3)nc3nc[nH]c23)cc1 [Purine, 21]	28.8	–
FC(F)(F)c1cccc(CNc2nc(NCc3ccccc3)c3nc[nH]c3n2)c1 [Purine, 3]	13.7	–
O=[N+]([O-])c1ccc(CNc2nc(NCc3cccc(Cl)c3)nc3nc[nH]c23)cc1 [Purine, 23]	20	–
Nc1ccc(CNc2nc(NCc3cccc(C(F)(F)F)c3)nc3nc[nH]c23)cc1 [Purine, 2]	13.5	–
Fc1ccc(CNc2nc(NCc3ccccc3)c3[nH]cnc3n2)cc1 [Purine, 9]	220	–
O=[N+]([O-])c1ccc(CNc2nc(NCc3cccc(C(F)(F)F)c3)nc3[nH]cnc23)cc1 [Purine, 5]	10.2	4.3
Clc1ccc(CNc2nc(Nc3ccccc3)c3[nH]cnc3n2)cc1 [Purine, 10]	150	–
FC(F)(F)c1ccc(CNc2nc(NCc3ccc(C(F)(F)F)cc3)c3[nH]cnc3n2)cc1 [Purine, 8]	102	–
O=[N+]([O-])c1ccc(CNc2nc(NCc3ccc(Cl)cc3)nc3nc[nH]c23)cc1 [Purine, 24]	12.7	–
NCc1cccc(CNc2nc(NCc3ccccc3)c3[nH]cnc3n2)c1 [Purine, 14]	> 200	–
O=[N+]([O-])c1ccc(CNc2nc(NCc3cccc(F)c3)nc3nc[nH]c23)cc1 [Purine, 20]	49	–
COc1ccc(CNc2nc(NCc3cccc(C(F)(F)F)c3)nc3c2ncn3C(C)C)cc1 [Purine, 11]	> 200	–
O=[N+]([O-])c1cccc(CNc2nc(NCc3ccccc3Cl)nc3nc[nH]c23)c1 [Purine, 16]	> 200	–
O=[N+]([O-])c1ccc(CNc2nc(NCc3ccccc3C(F)(F)F)nc3nc[nH]c23)cc1 [Purine, 17]	18.2	–
